Values of other authors in patent US10729766B2 (priority 2013, dated 2020).

Legend:
[1] = mice; single bolus low dose administration

SMILES: O=P1(N(CCCl)CCCl)NCCCO1 (stereo not shown) [Cyclophosphamide, N,N-bis(2-chloroethyl)-1,3,2-oxazaphosphinan-2-amine 2-oxide]
- time of effects returning to normal [1]: 7 to 10 days
- time to nadir of effects after administration [1]: ≤ 4 days
- bioavailability, oral versus parenteral administration (human, in vivo, po): little difference in bioavailability
- peak plasma levels of the parent (varies between patients): 3 to 11 h
